Reference: patent US20150119400A1, “METHODS FOR TREATING HCV” (priority 2013, published 2015)
Like-named read-outs stand apart in the source and are kept apart here.

Legend:
[1] = tested on: replicon containing GT3a NS3 protease, variants; experiment: Resistant colony selection and variant susceptibility, replicon containing GT3a NS3 protease; type: cell-based, Hepatitis C virus
Description: (§1) The inhibitory effects of the compounds of the invention on HCV replication can also be determined by measuring activity of the luciferase reporter gene encoded by subgenomic replicons not containing the Neo selectable marker, that are transiently expressed in cells. The adaptive mutations encoded by the 1a-H77, 1b-N and 1b-Con-1 replicons are the same as listed above. The 1b-Con1 replicon used for these transient assays contains the NS2-NS5B coding region rather than the NS3-5B coding region. These replicons may encode target NS3 genes as described for stable subgenomic replicons or they may encode amino acid variants that confer varying degrees of susceptibility to the drug. For example, variants could include R155K, D168E or D168V in a genotype 1a NS3 gene; R155K or D168V in a genotype 1b NS3 gene; S138T, A166T or Q168R in a genotype 3a NS3 gene. For example, cells can be transfected with the replicon by electroporation and seeded into 96 well plates at a density of 5000 cells per well in 100 μl DMEM containing 5% FBS. Compounds diluted in dimethyl sulfoxide (DMSO) to generate a 200× stock in a series of eight half-log dilutions can then be further diluted 100-fold in the medium containing 5% FBS and added to the cell culture plates already containing 100 μl of DMEM with 5% FBS. After an incubation period of either 3 or 4 days, 30 μl of Passive Lysis buffer (Promega) can be added to each well, with incubation for 15 minutes with rocking to lyse the cells. Luciferin solution (100 μl, Promega) can be added to each well, and luciferase activity can be measured with a luminometer. The percent inhibition of HCV RNA replication can be calculated for each compound concentration and the EC50 value can be calculated using nonlinear regression curve fitting to the 4-parameter logistic equation and GraphPad Prism 4 software.
Resistant colony selection studies in GT1a and 1b subgenomic replicon cells identified A156T in GT1a and A156V in GT1b as the most frequent variants, which conferred 1400- and 1800-fold reduced susceptibility to Compound 1, respectively. […]

[2] = tested on: GT1b subgenomic replicon NS3 variants; experiment: Resistant colony selection and variant susceptibility, GT1b subgenomic replicon cells; type: cell-based, Hepatitis C virus; conditions: A156V in GT1b
Description: as §1, with “Compounds diluted in dimethyl sulfoxide (DMSO) to generate a 200× stock in a series of eight half-log dilutions can then be further diluted 100-fold in the medium containing 5% FBS and added to the cell culture plates already containing 100 μl of DMEM with 5% FBS. After an incubation period of either 3 or 4 days, 30 μl of Passive Lysis buffer (Promega) can be added to each well, with incubation for 15 minutes with rocking to lyse the cells.” left out, “software. […]” for “software.”

[3] = tested on: HCV stable subgenomic replicons containing NS3 genes from GT 1a, 1b, 2a, 3a, 4a, or 6a; experiment: HCV stable subgenomic replicon panel, summary statements over several genotypes; type: cell-based; conditions: Hepatitis C virus
HCV genotype 6a replicon = experiment: HCV subgenomic stable replicon cell culture assay (luciferase), genotype 6a; type: cell-based; conditions: Hepatitis C virus; bound stated in description, plasma not stated; read-out: EC50 value against HCV genotype 6a
[4] = tested on: GT1a subgenomic replicon NS3 variants; experiment: Resistant colony selection and variant susceptibility, GT1a subgenomic replicon cells; type: cell-based, Hepatitis C virus; conditions: A156T in GT1a
Description: as §1, with “Compounds diluted in dimethyl sulfoxide (DMSO) to generate a 200× stock in a series of eight half-log dilutions can then be further diluted 100-fold in the medium containing 5% FBS and added to the cell culture plates already containing 100 μl of DMEM with 5% FBS. After an incubation period of either 3 or 4 days, 30 μl of Passive Lysis buffer (Promega) can be added to each well, with incubation for 15 minutes with rocking to lyse the cells.” left out, “software. […]” for “software.”

Structure (SMILES): CC(C)(C)[C@@H]1NC(=O)O[C@@H]2CCC[C@H]2OC/C=C/C(F)(F)c2nc3ccccc3nc2O[C@@H]2C[C@@H](C(=O)N[C@]3(C(=O)NS(=O)(=O)C4(C)CC4)C[C@H]3C(F)F)N(C2)C1=O [Compound 1]
- fold loss in susceptibility conferred by variant ([1]; A156G alone): 1500 fold
- fold loss in susceptibility conferred by variant ([1]; Q168R co-selected with Y56H): 1100 fold
- resistant colonies selected ([1]; concentrations ≧100-fold over its EC50 value): very few colonies
- fold reduced susceptibility conferred by variant [2]: 1800 fold
- EC50 ([3]; bound stated for all six genotypes, read-out: EC50 value against HCV genotype 1a, 1b, 2a, 3a, 4a, and 6a): < 3 nM
- EC50 ([3]; genotype 1a and 1b, 0% Human Plasma, 5% FBS, read-out: mean EC50 values, range over genotype 1a and 1b replicons): 0.85 to 0.94 nM
- EC50 ([3]; genotype 1a and 1b, 40% Human Plasma, 5% FBS, read-out: mean EC50 values, range over genotype 1a and 1b replicons): 5 to 10 nM
- EC50 ([3]; genotype 2a, 3a, 4a, 6a, 0% Human Plasma, 5% FBS, read-out: mean EC50 values, range over genotype 2a, 3a, 4a, and 6a replicons): 0.86 to 2.8 nM
- EC50 (HCV genotype 6a replicon): < 1 nM
- fold reduced susceptibility conferred by variant [4]: 1400 fold
